Reference: patent US6420137B1 (American Home Products Corporation, priority 1998, dated 2002)
Structures can show the parent of a compound that is named as a salt.

Tests used:
HNT2R = target: T1, HNT2R (Homo sapiens, UniProt O95665); experiment: GTP sensitivity of [3H]NT binding, CHO-K1 membranes stably expressing HNT2R
T1 construct: The HindIII and XbaI digested full-length receptor cDNAs were inserted into the pRC/CMV (Invitrogen) vector; expressed in transfected cells; host or cells: GH4C1 (rat pituitary) membranes for A6 and A8; CHO-K1 membranes for A9; SK-N-MC whole cells for A11

HNT2RS [1] = experiment: GTP sensitivity of [3H]NT binding, CHO-K1 membranes stably expressing HNT2RS; set-up: species or system human
Method: GTP sensitivity. These radioligand binding assays were performed in 96-well microtiter plates using 1×binding buffer (50 mM HEPES, pH 7.4, 10 mM MgCl2, 0.4% BSA, pH 7.4) containing protease inhibitors (5 μg/ml leupeptin, 5 μg/ml aprotinin, 100 μg/ml bacitracin, and 100 μg/ml benzamidine). […] Wells A1-6 were repeated for each membrane preparation to be tested for GTP sensitivity. Binding reactions were initiated by adding 5-100 μg of membrane protein in a 170 μl volume. Final reaction volume was 200 μl/well. The microtiter plate was placed on a rotary shaker at 200 rpm and incubated at room temperature for 2 hours. Free radioligand was separated from bound ligand by rapid filtration through a glass fiber (GF/C) filter plate pretreated with 0.3% polyethyleneimine using a Packard cell harvester. The filter plates were then washed several times with cold (4° C.) binding buffer lacking BSA. After the filter plates were dried in a 37° C. incubator for 2 hours, 25 μl Microscint scintillation fluid (Packard) was added to each well and the plate was counted in a Packard Top Count scintillation counter.

[2] = test system: neurotensin receptor subtypes NT1R, NT2R, NT3R; details: cited from earlier work
H1-histamine receptors = H1-histamine receptors (Homo sapiens, UniProt P35367); details: cited from earlier work
fasted ob/ob males = experiment: Effect of AcNT(8-13) on appetite / food consumption in mouse models of obesity; type: in vivo
From the text: (§1) Obesity is associated with decreased metabolic energy expenditure and increased metabolic efficiency. Increasing metabolic energy expenditure (thermogenesis) is a desirable characteristic of anti-obesity targets.

HNT2RL = target: T2, HNT2RL (Homo sapiens, UniProt O95665); experiment: Competition of [3H]neurotensin binding, membranes from GH4C1 cells stably expressing HNT2RL; details: HNT2RL (long form), FIG. 1A
T2 construct: The HindIII and XbaI digested full-length receptor cDNAs were inserted into the pRC/CMV (Invitrogen) vector; expressed in transfected cells; host or cells: GH4C1 (rat pituitary) membranes for A6 and A8; CHO-K1 membranes for A9; SK-N-MC whole cells for A11
Method: (§2) A: Binding to membranes from GH4C1 cells stably expressing HNT2RL. B: Binding to membranes from GH4C1 cells stably expressing HNT2RS.
The adherent cells were removed from the plates with PBS and 2 mM EDTA, pelleted by centrifugation at 1,500×g for 10 minutes at 4° C., and resuspended in ice cold homogenization buffer (1 mM sodium bicarbonate, 1 mM EDTA, 1 mM EGTA, pH 7.2) containing 1×protease inhibitors (5 μg/ml leupeptin, 5 μug/ml aprotinin, 100 μg/ml bacitracin, and 100 μg/ml benzamidine). After 10 minutes on ice, the cells were lysed by dounce homogenizing for 20 strokes in a glass/glass homogenizer. The cell lysate was centrifuged at 1,500×g for 10 minutes at 4° C. to remove the nuclei and cell debris and the supernatant containing the cell membranes were harvested by centrifugation at 20,000×g for 30 minutes at 4° C. The membrane pellet was resuspended in 1×homogenization buffer containing 1×protease inhibitors and once again pelleted. […]
The microtiter plate was placed on a rotary shaker at 200 rpm and incubated at room temperature for 2 hours. […] After the filter plates were dried in a 37° C. incubator for 2 hours, 25 μl Microscint scintillation fluid (Packard) was added to each well and the plate was counted in a Packard Top Count scintillation counter.

HNT2RS [3] = experiment: Competition of [3H]neurotensin binding, membranes from GH4C1 cells stably expressing HNT2RS; set-up: species or system human; details: HNT2RS (short form), FIG. 1B
Method: as §2
The adherent cells were removed from the plates with PBS and 2 mM EDTA, pelleted by centrifugation at 1,500×g for 10 minutes at 4° C., and resuspended in ice cold homogenization buffer (1 mM sodium bicarbonate, 1 mM EDTA, 1 mM EGTA, pH 7.2) containing 1×protease inhibitors (5 μg/ml leupeptin, 5 μug/ml aprotinin, 100 μg/ml bacitracin, and 100 μg/ml benzamidine). After 10 minutes on ice, the cells were lysed by dounce homogenizing for 20 strokes in a glass/glass homogenizer. The cell lysate was centrifuged at 1,500×g for 10 minutes at 4° C. to remove the nuclei and cell debris and the supernatant containing the cell membranes were harvested by centrifugation at 20,000×g for 30 minutes at 4° C. The membrane pellet was resuspended in 1×homogenization buffer containing 1×protease inhibitors and once again pelleted. The membrane pellet was then resuspended at 1-5 mg/ml in 25 mM Tris, pH 7.4 and either directly used in binding assays or frozen (−80° C.) in small aliquots for future use.
Radioligand binding assays: competition binding. All radioligand binding assays were performed in 96-well microtiter plates using 1×binding buffer (50 mM HEPES, pH 7.4, 10 mM MgCl2, 0.2% BSA, pH 7.4) containing protease inhibitors (5 μg/ml leupeptin, 5 μmg/ml aprotinin, 100 μg/ml bacitracin, and 100 μg/ml benzamidine). […] Binding reactions were initiated by adding 5-100 μg of membrane protein in a 170 μl volume. Final reaction volume was 200 μl/well.
The microtiter plate was placed on a rotary shaker at 200 rpm and incubated at room temperature for 2 hours. Free radioligand was separated from bound ligand by rapid filtration through a glass fiber (GF/C) filter plate pretreated with 0.3% polyethyleneimine for 30 minutes) using a Packard cell harvester. […] After the filter plates were dried in a 37° C. incubator for 2 hours, 25 μl Microscint scintillation fluid (Packard) was added to each well and the plate was counted in a Packard Top Count scintillation counter.

[4] = Acute metabolic responses to AcNT(8-13): lipolysis, oxygen consumption; type: in vivo; details: administered acutely
From the text: as §1

Sequence of H1-histamine receptors (P35367 whole entry): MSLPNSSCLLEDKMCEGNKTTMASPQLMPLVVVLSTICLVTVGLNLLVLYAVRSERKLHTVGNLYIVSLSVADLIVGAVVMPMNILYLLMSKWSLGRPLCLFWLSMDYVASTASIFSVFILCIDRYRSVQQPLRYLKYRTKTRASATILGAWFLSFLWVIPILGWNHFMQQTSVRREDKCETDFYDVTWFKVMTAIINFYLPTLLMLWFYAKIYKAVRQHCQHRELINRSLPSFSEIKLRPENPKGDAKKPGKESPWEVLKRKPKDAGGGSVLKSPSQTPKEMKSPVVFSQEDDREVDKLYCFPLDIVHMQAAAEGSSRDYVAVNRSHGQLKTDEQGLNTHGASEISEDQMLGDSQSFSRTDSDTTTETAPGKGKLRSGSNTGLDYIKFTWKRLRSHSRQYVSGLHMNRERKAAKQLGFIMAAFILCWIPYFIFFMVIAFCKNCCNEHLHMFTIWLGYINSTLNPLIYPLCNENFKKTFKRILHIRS
T2 sequence (O95665 whole entry): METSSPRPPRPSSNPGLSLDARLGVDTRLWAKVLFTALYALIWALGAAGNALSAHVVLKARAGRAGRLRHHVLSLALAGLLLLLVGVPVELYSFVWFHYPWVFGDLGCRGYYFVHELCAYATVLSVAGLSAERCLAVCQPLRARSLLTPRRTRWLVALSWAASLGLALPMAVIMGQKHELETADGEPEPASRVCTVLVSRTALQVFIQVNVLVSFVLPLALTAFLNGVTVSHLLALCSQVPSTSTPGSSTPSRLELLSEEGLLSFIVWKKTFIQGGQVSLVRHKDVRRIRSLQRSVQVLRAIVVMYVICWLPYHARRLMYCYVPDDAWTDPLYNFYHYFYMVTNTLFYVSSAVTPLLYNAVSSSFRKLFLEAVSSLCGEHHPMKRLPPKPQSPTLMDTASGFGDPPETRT
T1 sequence (O95665 whole entry): as above

## Nc1nc2c(ncn2[C@@H]2O[C@H](COP(=O)(O)OP(=O)(O)OP(O)(O)=S)[C@@H](O)[C@H]2O)c(=O)[nH]1 [GTPγS]
HNT2R
  % Decrease in [3H]NT Bound in Presence of 100 μM GTPγS: 51.5%
HNT2RS [1]
  % Decrease in [3H]NT Bound in Presence of 100 μM GTPγS: 35.3%

## c1ccncc1 [Pyridine, pyridine]
[2]
  binding to NTR subtypes: not to any NTR subtypes
H1-histamine receptors
  binding to H1-histamine receptors: high affinity binding
Fasted ob/ob males; antihistamine at 1 mg/kg
  block of AcNT(8-13)-mediated appetite suppression: did not block

## COc1cccc(OC)c1-c1cc(C(=O)NC2(C(=O)O)C3CC4CC(C3)CC2C4)nn1-c1ccnc2cc(Cl)ccc12 (centres unmarked) [SR48692]
HNT2RL
  competition of [3H]neurotensin binding: competed at a concentration about two orders of magnitude higher
HNT2RS [3]
  competition of [3H]neurotensin binding: competed at a concentration about two orders of magnitude higher

## COc1cccc(OC)c1-c1cc(C(=O)NC2(C(=O)O)C3CC4CC(C3)CC2C4)nn1-c1ccc(C(=O)N(C)CCCN(C)C)cc1C(C)C.Cl (centres unmarked) [SR142948]
[2]
  affinity for the NT1R and NT2R subtypes: comparable affinity

## C[C@@H]1CN([C@H]2CC[C@](C#N)(c3ccc(F)cc3)CC2)CC[C@]1(C(=O)O)c1ccccc1 [levocabastine, (−)-{3S-[1(cis)-3α4β]}-1-{4-cyano-4-(4-fluoro-phenyl)-cyclohexyl)}-3-methyl-4-phenyl-4-piperidene-carboxylic acid monohydrochloride]
[2]
  binding to the NT2R subtype: high affinity
  selectivity for the NT2R over the NT1R and NT3R subtypes: 1000 fold
Fasted ob/ob males; animals pretreated with antagonist, 50 μg/kg AcNT(8-13)
  reversal of the suppression of food intake mediated by AcNT(8-13): completely reversed

## AcNT(8-13): N-acetylated form of the carboxyl terminal 6 amino acids of neurotensin (8-13)
[2]
  binding affinity compared with the 13 amino acid form of neurotensin: identical
HNT2RS [3]
  competition of [3H]neurotensin binding: equally well
[4]
  lipolytic effects (NEFAs and glycerol): elevated NEFAs and glycerol
  oxygen consumption: increased
Fasted ob/ob males; AcNT(8-13) i.p., fasted ob/ob males
  food consumption: biphasic suppression of food consumption
Fasted ob/ob males; administered acutely
  suppression of food consumption: 40-60%

## NT(9-13): neurotensin (9-13) fragment, a neurotensin receptor binding partner
HNT2RS [3]
  competition of [3H]neurotensin binding: bound with lower affinity

## [^3H]NT: tritiated neurotensin radioligand (New England Nuclear, 100 Ci/mmol)
HNT2RS [1]
  Specific [3H]NT Bound in Presence of 100 μM GTPγS: 451 cpm
HNT2RS [1]; no GTPγS
  Specific [3H]NT Bound: 697 cpm
